Measured values taken from US11306119B2, “Peptide bound to PD-L1 and use thereof” (KYUNGPOOK NATIONAL UNIVERSITY INDUSTRY-ACADEMIC COOPERATION …, priority 2017, dated 2022).

What was measured:
[1] = tested on: CT26 mouse syngeneic colon tumor; experiment: Combination therapy of peptides with doxorubicin in CT26 syngeneic colon tumor model; assay type: in vivo; settings: flow cytometry, FIG. 6e
Protocol: (§1) 6-8-week-old WT Balb/c mice were purchased. Mice was cared and maintained under the guidelines of the Institutional Animal Care and Use Committee (IACUC) of Kyungpook National University (2014-0001-8.). Tumor was injected onto the lower right flank of the mice. For the in-vivo homing imaging, the tumor was developed for 7 days, after the tumor size reached to 100 mm^3, the mice were injected with 100 μl of […] Flamma-675 NIR fluorescence dye labelled peptides and allow the complete circulation for an hour. After incubation, the mice were anesthetized, and the image was taken using the IVIS imaging system. […] Tumor size was measured using a digital caliper, and the tumor volume was calculated using the formula (Volume ¼ (L−W−H)/2. (Length: longest dimension, Width: shorter dimension, parallel to the mouse body and Height: perpendicular to the length and width). All mice were checked for the ulceration and at the end of the treatment and the mice were sacrificed for the immune cell analysis.
(§2) Tumors were isolated, minced and incubated with a digestion buffer containing collagenase D (5 mg/ml) with the RPMI-1640 medium at 37° C. for 40 min. […] The single cell suspension was made ready to use and CD45 antibody was used to stain the tumor infiltrating leukocytes and then analyzed with following antibodies for CD4, CD8 and F4/80. […]

CT26 syngeneic tumor = experiment: Antitumor therapy in CT26 syngeneic mouse model (peptide alone); assay type: in vivo; settings: i.v. every alternative day, 24 days, FIG. 5b
Protocol: as §1, §2

PD-L1 on MDA MB231 cells = experiment: Peptide and receptor internalization assay in MDA MB231 cells; assay type: cell-based, human; settings: MDA MB231, FIG. 2d
Protocol: MDA MB231, CT26, MCF7, Hek29 cells (1×10^5) were seeded in eight well chamber slides for overnight. Next day, the cells were washed twice with PBS and incubated with 1% BSA at RT for 1 hr to reduce the non-specific binding of peptides. The cells were then incubated with different concentration ([…]) of FITC conjugated peptide for 1 hr at 4° C. After fixation, cells were washed, and counter stained with DAPI, mounted and subjected to confocal microscopy (Zeiss, Oberkochen, Germany). For the peptide internalization assay, the MDA MB231 cells were incubated with […] concentration of FITC-conjugated peptides at 37° C. for 1 hr 30 min, the procedure was then continued as previously described. For the receptor internalization assay, first the internalization of peptide was obtained as described above and then after several washing steps with PBS, the PD-L1 antibody (1:100 dilution) was incubated with the cell for 1 hr 30 min at 37° C. […] For flow cytometry, cells (1×10^6) were harvested and then suspended in the culture medium containing 1% BSA at RT for 1 hr for blocking and then incubated with FITC-labelled PD-L1 for another 1 hr at 4° C. After several washing, 300 ul of cell suspension with PBS was subjected to flow cytometry (BD, Franklin Lakes, N.J.). […]

| Substance | percentage of CD4+ T cells in tumor tissue, increased value ("to") [1] [%] | tumor volume control compared to control peptide and PBS group (CT26 syngeneic tumor) | surface PD-L1 antibody staining after peptide internalization (receptor internalization) (PD-L1 on MDA MB231 cells) |
| --- | --- | --- | --- |
| CLQKTPKQC [PD-L1Pep-1] | 6 | robust effect | – |
| NSSSVDK (phage coat protein used as control peptide) | – | – | did not decrease |
